{"source": "patent US20110039811A1", "about": "“TREATING HYPERGLYCEMIA WITH 25-HYDROXYVITAMIN D3” (priority 2008, published 2011)", "key": {"[1]": {"settings": "cited from earlier work"}, "insulin levels": {"system": "insulin levels", "test": "Clinical trial: insulin levels, week 15 versus week 2", "type": "in vivo, human", "settings": "for number of individuals with higher insulin levels at week 15 than at week 2 / number of individuals with lower insulin level at week 15 than at week 2: only individuals without a \"0.0\" insulin result: four for Vitamin D3, five for 25-OH D3, daily or weekly dosing", "excerpt": "(§1) Each group included five subjects.\n(§2) Equimolar quantities of both substances were investigated.\n(§3) Each dosage was consumed orally at breakfast.\n(§4) Rigorous statistical analysis of the results obtained could not be performed for two reasons. First, upon unblinding the data, it was discovered that there was a difference between the groups' baseline glucose levels, and that this difference continued throughout the study. Secondly, upon examining individual's insulin levels, it was noted that a number of them were recorded as “0.0” in at least one visit."}, "blood glucose": {"system": "blood glucose", "test": "Clinical trial: fasting glucose levels, week 15 versus week 2", "type": "in vivo, human", "settings": "for effect on glucose levels (conclusion in words): daily or weekly oral dosing, week 15 vs week 2; for number of individuals with lower glucose levels at week 15 as compared to week 2: of ten individuals receiving daily (20 μg) or weekly (140 μg) oral dosing, postmenopausal women, no rigorous statistics", "excerpt": "as §1, §2, §3, §4"}, "plasma glucose [2]": {"system": "plasma glucose", "test": "Mouse study 1: plasma glucose in a model of muscle hypertrophy", "type": "in vivo, mice", "method": "In the first study, the effects of 25-OH D3 on blood glucose were determined in a model of muscle hypertrophy. Briefly, two groups of 10 animals were anesthetized and the left hindlimb of the animals was fixed. All animals received an analgesic. A small incision was made through the skin over the gastrocnemius muscle. The complete gastrocnemius muscle and his tendons were exposed. Both heads of the gastrocnemius muscle were carefully dissected from the underlying intact muscles and care was taken not to rupture nerves and vessels. The skin was closed with a silk suture and the animals were returned into the cages. After recovering from anesthesia the animals could move directly without problems in their cages. Animals were treated for three weeks by gavage with 25-OH D3 at a daily dosage of 50 μg/kg and the control group received vehicle. At the end of the study, blood was taken and plasma glucose concentration was analyzed by a Hitachi 912 Automatic Analyser."}, "plasma glucose [3]": {"system": "plasma glucose", "test": "Mouse study 2: plasma glucose in a model of muscle atrophy (hindlimb unloading)", "type": "in vivo, mice", "settings": "for change in blood glucose levels versus control with unloading (in words): study 2, Table 2; for Plasma glucose: study 2, hindlimb unloading, 50 μg/kg/bw (combination 50+50) daily by gavage for 3 weeks, control with unloading 12.89, without unloading 12.02", "excerpt": "Briefly, nine month old animals were randomized at the beginning of the study into five groups with 10 animals per group. The animals were placed in special cages for duration of three weeks and their tails were suspended, which leads to skeletal muscle atrophy of the unloaded hindlimbs. An additional group without hindlimb unloading was placed in identical cages in order to detect the effects of unloading. All mice were housed separately and had free access to feed and water ad libidum. All animals were treated daily by gavage throughout the 3 weeks of the experiment: • 1. Control group without unloading received vehicle (gelatine) • 2. Control group with unloading received vehicle (gelatine) • 3. […] The 25-OH D3 group with unloading received 25-OH D3 (50 μg/kg/bw) • 5."}}}
{"compound": "Vitamin D", "values": [{"measurement": "blood concentration of 25-hydroxyvitamin D after ingestion as a dietary supplement", "setting": "[1]; ingestion of 250 μg/day Vitamin D", "value": "about 200 nmol/L"}]}
{"compound": "25-hydroxyvitamin D", "values": [{"measurement": "blood concentration at which hypercalcemia may occur", "setting": "[1]; in vivo", "value": "greater than 375 nmol/L"}]}
{"compound": "C=C1CC[C@H](O)C/C1=C/C=C1\\CCC[C@]2(C)[C@@H]([C@H](C)CCCC(C)(C)O)CC[C@@H]12", "note": "[25-OH D3, 25-hydroxyvitamin D3]", "values": [{"measurement": "ability to improve insulin sensitivity (conclusion in words)", "setting": "insulin levels; compared with Vitamin D3", "value": "better ability to improve insulin sensitivy than does Vitamin D3"}, {"measurement": "number of individuals with higher insulin levels at week 15 than at week 2", "setting": "insulin levels", "value": "one"}, {"measurement": "number of individuals with lower insulin level at week 15 than at week 2", "setting": "insulin levels", "value": "four"}, {"measurement": "effect on glucose levels (conclusion in words)", "setting": "blood glucose", "value": "can lower glucose levels"}, {"measurement": "number of individuals with lower glucose levels at week 15 as compared to week 2", "setting": "blood glucose", "value": "6 of 10"}, {"measurement": "change in plasma glucose compared to control group (in words)", "setting": "plasma glucose [2]; study 1, Table 1", "value": "decrease in plasma glucose"}, {"measurement": "Plasma glucose", "setting": "plasma glucose [2]; study 1, muscle hypertrophy model, 50 μg/kg daily by gavage for three weeks, vehicle control 15.53", "value": 14.65, "unit": "mmol/L"}, {"measurement": "change in blood glucose levels versus control with unloading (in words)", "setting": "plasma glucose [3]", "value": "moderate decrease in blood glucose levels"}, {"measurement": "Plasma glucose", "setting": "plasma glucose [3]", "value": 12.75, "unit": "mmol/L"}]}
{"compound": "C=C1CC[C@H](O)C/C1=C/C=C1\\CCC[C@]2(C)[C@@H]([C@H](C)CCCC(C)C)CC[C@@H]12", "note": "[Vitamin D3, cholecalciferol]", "values": [{"measurement": "number of individuals with higher insulin levels at week 15 than at week 2", "setting": "insulin levels", "value": "three"}, {"measurement": "number of individuals with lower insulin level at week 15 than at week 2", "setting": "insulin levels", "value": "one"}, {"measurement": "effect on glucose levels (conclusion in words)", "setting": "blood glucose", "value": "can lower glucose levels"}, {"measurement": "number of individuals with lower glucose levels at week 15 as compared to week 2", "setting": "blood glucose", "value": 7}, {"measurement": "change in blood glucose levels versus control with unloading (in words)", "setting": "plasma glucose [3]", "value": "moderate decrease in blood glucose levels"}, {"measurement": "Plasma glucose", "setting": "plasma glucose [3]", "value": 12.69, "unit": "mmol/L"}]}
